Results: ChEMBL document CHEMBL1201862, “PubChem BioAssay data set” (2004)
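All cell lines were grown in 96-well plates and treated with compound for 48 hours. GI50 is the concentration that inhibits growth by half.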 The source made the active and inactive calls. No stated cut-off is given here; in the data, active = GI50 up to about 1.1 µM and inactive = higher.

Columns and labels:
Assay in all cases: NCI-60 cell line screen, 48 h
[1] = system: LOX IMVI
[2] = system: LXFL 529
[3] = system: NCI-H226
[4] = system: SNB-19
[5] = system: SK-OV-3
[6] = system: EKVX
[7] = system: DMS-114
[8] = system: SF-268
[9] = system: MOLT-4
[10] = system: SF-295
[11] = system: ACHN
[12] = system: M19-MEL
[13] = system: RPMI-8226
[14] = system: SN12C
[15] = system: NCI-H522
[16] = system: A549
[17] = system: HOP-92
[18] = system: HOP-18
[19] = system: TK-10
[20] = system: U-251
[21] = system: Malme-3M
[22] = system: HT-29
[23] = system: SK-MEL-28
[24] = system: CCRF-CEM
[25] = system: DLD-1
[26] = system: HL-60
[27] = system: SR
[28] = system: UACC-62
[29] = system: M14
[30] = system: CAKI-1
[31] = system: RXF 393
[32] = system: HCT-116
[33] = system: SW-620
[34] = system: COLO 205
[35] = system: SNB-75
[36] = system: UACC-257
[37] = system: KM-20L2
[38] = system: NCI-H23
[39] = system: NCI-H460
[40] = system: DMS-273
[41] = system: HCT-15
[42] = system: K562
[43] = system: 786-0
[44] = system: SNB-78
[45] = system: RXF 631
[46] = system: HCC 2998
[47] = system: UO-31
[48] = system: SK-MEL-5
[49] = system: OVCAR-4
[50] = system: SK-MEL-2
[51] = system: OVCAR-5
[52] = system: OVCAR-8
[53] = system: KM12
[54] = system: HOP-62
[55] = system: SF-539
[56] = system: OVCAR-3
[57] = system: XF498
[58] = system: IGROV-1
[59] = system: A498

Measured: GI50

N#C/C(=C\c1ccc[nH]1)C(=O)c1ccccc1
> 100 µM: [41]
inactive: [1] > 100 µM | [2] > 100 µM | [3] > 100 µM | [4] > 100 µM | [5] > 100 µM | [6] > 100 µM | [7] > 100 µM | [8] > 100 µM | [9] > 100 µM | [10] > 100 µM | [11] > 100 µM | [12] > 100 µM | [13] > 100 µM | [14] > 100 µM | [15] > 100 µM | [16] > 100 µM | [17] 70.8 µM | [18] 70.3 µM | [19] > 100 µM | [20] > 100 µM | [21] > 100 µM | [22] > 100 µM | [23] > 100 µM | [24] > 100 µM | [25] > 100 µM | [26] > 100 µM | [27] > 100 µM | [28] > 100 µM | [29] > 100 µM | [30] > 100 µM | [31] 58.9 µM | [32] > 100 µM | [33] > 100 µM | [34] > 100 µM | [35] 35.8 µM | [36] > 100 µM | [37] > 100 µM | [38] > 100 µM | [39] > 100 µM | [40] > 100 µM | [42] > 100 µM | [43] > 100 µM | [44] > 100 µM | [45] > 100 µM | [46] > 100 µM | [47] > 100 µM | [48] > 100 µM | [49] > 100 µM | [50] > 100 µM | [51] > 100 µM | [52] > 100 µM | [53] > 100 µM | [54] > 100 µM | [55] > 100 µM | [56] > 100 µM

CCOC(=O)/C(O)=C(/C(=O)OC)c1ccc(Cl)cc1
inactive: [1] > 100 µM | [2] > 100 µM | [4] > 100 µM | [5] > 100 µM | [6] > 100 µM | [7] > 100 µM | [8] > 100 µM | [9] > 100 µM | [10] > 100 µM | [11] > 100 µM | [12] > 100 µM | [13] > 100 µM | [14] > 100 µM | [16] > 100 µM | [19] > 100 µM | [20] > 100 µM | [21] > 100 µM | [22] > 100 µM | [23] > 100 µM | [24] > 100 µM | [25] > 100 µM | [28] > 100 µM | [57] > 100 µM | [29] > 100 µM | [30] > 100 µM | [33] > 100 µM | [34] > 100 µM | [35] > 100 µM | [36] > 100 µM | [37] > 100 µM | [38] > 100 µM | [39] > 100 µM | [40] > 100 µM | [42] > 100 µM | [43] > 100 µM | [58] > 100 µM | [44] > 100 µM | [45] > 100 µM | [46] > 100 µM | [47] > 100 µM | [48] > 100 µM | [49] > 100 µM | [50] > 100 µM | [51] > 100 µM | [52] > 100 µM | [59] > 100 µM | [53] > 100 µM | [54] > 100 µM | [55] > 100 µM | [56] > 100 µM
> 100 µM: [41]
